Experimental findings from patent US20250230226A1, “PLXDC1/PLXDC2 ACTIVATORS AND THEIR USE IN THE TREATMENT OF BLOOD VESSEL DISORDERS” (THE REGENTS OF THE UNIVERSITY OF CALIFORNIA, priority 2019, published 2025) are described below.

The test system of one assay is tumor blood vessels. Put plainly: Tumor animal model, bolus IV injection (FIG. 23-26). The note with it: bolus IV injection at day 0. Type of assay: in vivo, mice. The source says: Treatment was done at day 0 by bolus IV injection. A. Raw data of tumor growth curves of the mice in the control group. B. Raw data of tumor growth curves of the mice in the treatment group. C. Comparison of the combined growth data of the control group and the treatment group.
Pictures of the whole animals in the experiment described in FIG. 11 show tumor morphological and color changes on day 1 and day 3. Treatment was done at day 0. Tumors in the treatment groups becomes darker in color on day 1 due to the destruction of tumor blood vessels and accumulation of blood in the tumors. Tumors in the treatment groups start to become yellower in color on day 3, consistent with the onset of tumor necrosis due to the lack of tumor blood vessels.
FIG. 25A-B show tumor morphological changes on live animals due to the treatment by PLXDC1-activating compound. Pictures of the whole animals in the experiment described in FIG. 11 show tumor morphological and color changes on day 7. Treatment was done at day 0. While the tumors in the control group have grown to large sizes, tumors in the treatment groups have highly shrunk in size and become yellow in color.
FIG. 26A-B show morphological changes of dissected tumors due to the treatment by PLXDC1-activating compound. Pictures of the dissected tumors in the experiment described in FIG. 11 show tumor morphological and color changes on day 7. […]

A further assay relates to pathogenic blood vessels. The assay is described as follows: Ischemia-induced retinopathy in vivo (FIG. 22). Also on record: species or system mice. The following applies: subcutaneous injection during return to room air; n=10 retinas. The source says: A. Upper graph: Schematic diagram of the experimental design for ischemia-induced retinopathy. The high oxygen environment caused blood vessel loss (vaso-obliteration). In room air, loss of vessels triggered abnormal angiogenesis that generated pathogenic blood vessels on the top of the retina (marked in yellow in D). Treatment was applied during the return to room air by subcutaneous injection. Lower graph: quantitation of healthy blood vessels, vaso-obliteration and pathogenic blood vessels between the control (n=10) and treated retinas (n=10). […] B. Representative images of flat-mounted control retinas (upper two images) and retinas from compound treated mice (lower two images). Red signal is blood vessel marker. C. The same retinas in B with vaso-obliteration areas marked in white color. These images illustrate that compound-treated retinas went through vaso-obliteration like the control retinas. D. The same retinas in B with pathogenic blood vessels marked in yellow color.
FIG. 22A includes a schematic diagram of the experimental design for ischemia-induced retinopathy. The high oxygen environment caused blood vessel loss (vaso-obliteration). In room air, loss of vessels triggered abnormal angiogenesis that generated pathogenic blood vessels on the top of the retina (marked in yellow in FIG. 22D). Treatment was applied during the return to room air by subcutaneous injection. […]

The next assay has as its target T1, PLXDC1 (Homo sapiens, UniProt Q8IUK5).
T1 construct: expressed in transfected cells
T1 sequence (Q8IUK5 19-500): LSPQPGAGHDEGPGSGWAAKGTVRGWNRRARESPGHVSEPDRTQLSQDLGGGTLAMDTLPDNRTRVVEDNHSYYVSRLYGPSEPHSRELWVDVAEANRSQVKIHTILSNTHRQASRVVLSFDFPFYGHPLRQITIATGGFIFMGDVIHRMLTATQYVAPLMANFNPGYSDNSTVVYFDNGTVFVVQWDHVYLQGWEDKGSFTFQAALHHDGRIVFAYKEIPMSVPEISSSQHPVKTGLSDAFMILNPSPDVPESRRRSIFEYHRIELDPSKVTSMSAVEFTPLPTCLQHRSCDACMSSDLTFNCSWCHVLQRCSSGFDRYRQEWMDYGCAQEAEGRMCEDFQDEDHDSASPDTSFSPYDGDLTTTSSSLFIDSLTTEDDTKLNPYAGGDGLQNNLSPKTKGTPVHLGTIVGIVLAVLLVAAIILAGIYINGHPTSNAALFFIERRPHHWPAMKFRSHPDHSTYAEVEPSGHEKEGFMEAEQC
Put plainly: Gfi1b promotor luciferase receptor activation assay, PLXDC1-expressing cells (FIG. 18A, 19). The assay is classed as cell-based. The following applies: compound treatments 1 day; basal activity defined as 1. The source says:
(§1) FIG. 18A-B show activation of PLXDC1 and PLXDC2 by small molecules. […] All compound treatments were done for 1 day. Basal promotor activity of the PLXDC1-expressing cells is defined as 1.
Basal promotor activity of the PLXDC1-expressing cells is defined as 1. The basal activity of PLXDC1-expressing cells (Control) are higher than cells without PLXDC1, consistent promotor activation by the ectopic expression of the receptor without ligands.
(§2) By linking its promotor to a luciferase reporter gene, this example developed a PLXDC1 receptor activation assay.

A further assay deals with T2, PLXDC2 (Homo sapiens, UniProt Q6UX71).
T2 construct: host or cells: PLXDC2-expressing cells
The assay is described as follows: Gfi1b promotor luciferase receptor activation assay, PLXDC2-expressing cells (FIG. 18B). The assay is classed as cell-based. The note with it: compound treatments 1 day.
Description: as §1, §2

T2 sequence (Q6UX71 31-529): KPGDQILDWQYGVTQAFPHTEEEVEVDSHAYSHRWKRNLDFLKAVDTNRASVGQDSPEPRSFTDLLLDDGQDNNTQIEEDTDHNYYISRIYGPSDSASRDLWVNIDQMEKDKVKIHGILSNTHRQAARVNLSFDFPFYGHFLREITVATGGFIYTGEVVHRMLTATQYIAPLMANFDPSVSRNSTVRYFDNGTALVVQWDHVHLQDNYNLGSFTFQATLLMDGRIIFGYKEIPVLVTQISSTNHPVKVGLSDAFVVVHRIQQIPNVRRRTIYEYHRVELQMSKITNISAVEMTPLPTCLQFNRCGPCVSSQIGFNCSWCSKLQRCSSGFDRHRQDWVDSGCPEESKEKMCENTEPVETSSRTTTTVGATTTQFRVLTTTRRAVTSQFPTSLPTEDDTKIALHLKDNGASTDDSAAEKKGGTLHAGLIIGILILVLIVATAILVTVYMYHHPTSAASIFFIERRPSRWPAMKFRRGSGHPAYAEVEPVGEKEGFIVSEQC

Turning to `CCCCCCCCCCCCCCOc1ccc(S(=O)(=O)c2cnc3ccc([S+](C)[O-])cc3c2N2CCC(N3CCC(N4CCN(C)CC4)CC3)CC2)cc1` (centres unmarked) [Compound 346], the “Tumor growth / shrinkage” value in the assay with tumor blood vessels is “shrank the tumors significantly”. Besides, in the assay with pathogenic blood vessels, the Healthy blood vessels entry is reported as “improving the amount of healthy blood vessels” and the Pathogenic blood vessels entry was “highly suppressed pathogenic blood vessels”. The “Gfi1b promotor activity in PLXDC1-expressing cells” value on PLXDC1 is on record as “highly activated the promotor activity”. Further, the “Gfi1b promotor activity in PLXDC2-expressing cells” value on PLXDC2 is on record as “activated the promotor activity in PLXDC2-expressing cells”.
